Test results as given in patent US20230167058A1, “GPX4 COMPOUNDS AND COMPOSITIONS AND METHODS OF TREATMENT USING SAME” (THE TRUSTEES OF COLUMBIA UNIVERSITY IN THE CITY OF NEW YORK, priority 2020, published 2023).
Residue numbers refer to the chain shown, from its start.

Legend:
HT1080 cells = test: Single-point ferroptosis test, cellular viability (CellTiter-Glo); assay type: cell-based, human; conditions: 125 μM LOC1886, 48 h
Experimental: 1000 cells of each HT-1080 or G401 cell line were plated 36 μL per well of a 384-well plate on day 1. The remaining cells were immediately tested for Western Blot (to monitor GPX4 protein overexpression level). For dose response curves, compounds were dissolved in DMSO and a 12-point, twofold dilution series was prepared. The compounds were then diluted 1:50 in media and 4 μL was added to each well of the plates on day 2. Final concentrations of the compounds on the 384-well plate started from 2 μM for RSL3/ML162 and 20 μM for IKE/FIN56/FINO2. For single-point ferroptosis test, HT1080 cells were treated either with 12.5 μM RSL3 or 125 μM LOC1886, with or without supplementation of 2 μM Fer-1. After 48 h of treatment, the viability of cells was measured using 1:1 dilution of the CellTiter-Glo luminescent reagent (Promega G7573) with media, which was read on a Victor 5 plate reader after 10 min of shaking at room temperature on day 4. The intensity of luminescence was normalized to that of DMSO control. Results were quantified using GraphPad Prism 9. Based on the dose-response curve of viability, area under curves were calculated and reported in bar graph formats with standard errors using GraphPad Prism 9.

GPX4 = target: T1, GPX4 (Homo sapiens, UniProt P36969, U73C); test: Surface plasmon resonance (SPR); assay type: binding; conditions: Table 1
T1 sequence (P36969 33-197 U73C): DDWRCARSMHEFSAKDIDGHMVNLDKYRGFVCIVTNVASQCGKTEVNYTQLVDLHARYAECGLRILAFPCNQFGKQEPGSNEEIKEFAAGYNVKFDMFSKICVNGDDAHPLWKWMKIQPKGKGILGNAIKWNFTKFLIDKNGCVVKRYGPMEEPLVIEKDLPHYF
Description: These x-ray structures enabled further optimization of current inhibitors and the design of novel inhibitors targeting various binding sites on GPX4. Therefore, we applied a strategy of computer-facilitated design, based on MD simulation (Desmond) and Glide docking (Schrödinger Suite), and experimental high-throughput screening of a lead-optimized compound library of 10,000 compounds (FIGS. 6A-6E). All candidates were first evaluated by thermal denaturation assay and microscale thermophoresis (MST) to validate binding to GPX4 (Table 1). Surface plasmon resonance (SPR) and isothermal titration calorimetry (ITC) were then applied to precisely measure their binding kinetics and affinities, while ^1H-^15N heteronuclear single-quantum coherence (HSQC) NMR spectroscopy informed us of binding sites. We optimized two GPX4-specific activity assays to examine enzymatic inhibitory effects of hit compounds—LC-MS-based substrate/product monitoring and an NADPH-coupled assay. […] Some L880 analogues were also synthesized and tested (Table 2).

GPX4^U46C = target: T2, GPX4^U46C (Homo sapiens, UniProt P36969, U73C); test: Inhibition of the activity of purified GPX4^U46C protein (NADPH-coupled); assay type: biochemical; conditions: 20 μM RSL3 vs DMSO
T2 construct: His6 (N, cleaved yes); made in house; host or cells: E. coli BL21-Gold (DE3), M9 minimal medium with 15NH4Cl
T2 sequence (P36969 33-197 U73C): T1 sequence (P36969 33-197 U73C)
Experimental: Similar to the determination of cellular GPX4-specific activity, by coupling the oxidation of NADPH to NADP+ by oxidized glutathione produced by GPX4 in the presence of glutathione reductase, GPX4^U46C activity was assessed by measuring the decrease in NADPH (absorbance at 340 nm). GPX4 reaction buffer was prepared by adding 0.05 U/mL glutathione reductase, 210 μM GSH, 250 μM NADPH, 50 μM Cumene-OOH into 50 mM Tris HCl, pH 8.0, 0.5 mM EDTA. 15 μM His-tagged-GPX4^U46C pre-incubated with DMSO (vehicle) or 20 μM RSL3 was added to the GPX4 reaction buffer and the absorbance at 340 nm was monitored for the following 10 min. Results were quantified using GraphPad Prism 9.

GPX4^allCys(−) A46C = target: T3, GPX4^allCys(−) A46C (Homo sapiens, UniProt P36969, C102S/C134A/C175A/C37A/C64S/C93A/U73C); test: Intact protein MALDI MS analysis, GPX4^allCys(−) A46C; assay type: binding; conditions: only cys46 present
T3 construct: His (cleaved yes); made in house; host or cells: E. coli BL21-Gold (DE3)
T3 sequence (P36969 33-197 C37A/C64S/U73C/C93A/C102S/C134A/C175A): T1 sequence (P36969 33-197 U73C) with C5A, C32S, C61A, C70S, C102A, C143A
Experimental: GPX4^U46C or GPX4^AllCys(−)-A46C protein was pre-incubated with DMSO control or the inhibitor to be tested prior to MALDI MS analysis: 50 μM GPX4 protein was incubated with 500 μM inhibitors in FPLC buffer (100 mM Tris pH 8.0, 300 mM NaCl, and 3 mM TCEP) with 5% DMSO at RT for 1 hour before transferring to 4° C. overnight.
1 μl of the ligand-free protein (pre-incubated with DMSO) or protein-inhibitor complex (pre-incubated with the inhibitor to be tested) was mixed with 9 μl of 10 mg/ml sinapinic acid in the matrix solution (70:30 water/acetonitrile, with 0.1% TFA). 1.0 μl of the final mix was deposited onto the target carrier and allowed to air dry. MALDI spectrum was recorded using Bruker ultrafleXtreme MALDI-TOF instrument. The range of m/z detection and suppression was adjusted to accommodate the molecular weight of target protein. 2000 Hz and 50% intensity was applied for the laser setting. For each sample, five cumulative spectra were collected and the sum was recorded for analysis. All MALDI spectra of protein-inhibitor complex were compared with ligand-free protein to determine the mass shift. Mass shifts were aligned with the mass of potential staying group of each inhibitor to conclude covalent binding.

[1] = system: GPX4 protein level in HT-1080 cells; test: Western blot GPX4 degradation study in HT-1080; assay type: cell-based, human; conditions: 1 μM RSL3, 1 μM ML162, 10 μM FIN56, 10 h, with 100 μM α-tocopherol
How it was run: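 HT-1080 cells were co-treated 10 h with 100 μM α-tocopherol plus compound (RSL3 or ML162 at 1 μM; IKE or FIN56 at 10 μM) or vehicle. RIPA lysates were Western blotted for GPX4, with actin and GAPDH as loading references. Blots were quantified by infrared imaging.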

COc1cccc2[nH]c(C(=O)n3ccnc3)cc12 [LOC1886]
induction of ferroptosis (HT1080 cells): able to induce ferroptosis to HT1080 cells | SPR (GPX4): positive

COC(=O)c1ccc([C@@H]2c3[nH]c4ccccc4c3C[C@@H](C(=O)OC)N2C(=O)CCl)cc1 [RSL3, (1S, 3R)-RSL3]
enzymatic activity of GPX4^U46C after incubation (GPX4^U46C): inhibited the capability of GPX4 to reduce phospholipid hydroperoxides | covalent modification of cys46 (mass shift) by MALDI MS (GPX4^allCys(−) A46C): no mass shift | degradation of endogenous GPX4 [1]: significantly promoted degradation of GPX4
